Results from PMC9403976, “Elucidating the path to Plasmodium prolyl-tRNA synthetase inhibitors that overcome halofuginone resistance” (Nature Communications, 2022).
Where “and” joins values, the source holds several entries; their conditions need not be identical. Equal entries are not always repeated. Where two headings read alike, the source gives them in different places.

Columns and labels:
[1] = biological target: HsProRS (Homo sapiens, UniProt P07814); test: TR-FRET ligand displacement assay with tracer MAT379 (CoraFluor-1-Halo and anti-His6 antibody formats); type: binding; set-up: made in house; host or cells: E. coli SoluBL-21; details: for TR-FRET dose-response, normalized signal (SI Fig 11): individual replicates
Sequence of HsProRS (P07814 996-1512): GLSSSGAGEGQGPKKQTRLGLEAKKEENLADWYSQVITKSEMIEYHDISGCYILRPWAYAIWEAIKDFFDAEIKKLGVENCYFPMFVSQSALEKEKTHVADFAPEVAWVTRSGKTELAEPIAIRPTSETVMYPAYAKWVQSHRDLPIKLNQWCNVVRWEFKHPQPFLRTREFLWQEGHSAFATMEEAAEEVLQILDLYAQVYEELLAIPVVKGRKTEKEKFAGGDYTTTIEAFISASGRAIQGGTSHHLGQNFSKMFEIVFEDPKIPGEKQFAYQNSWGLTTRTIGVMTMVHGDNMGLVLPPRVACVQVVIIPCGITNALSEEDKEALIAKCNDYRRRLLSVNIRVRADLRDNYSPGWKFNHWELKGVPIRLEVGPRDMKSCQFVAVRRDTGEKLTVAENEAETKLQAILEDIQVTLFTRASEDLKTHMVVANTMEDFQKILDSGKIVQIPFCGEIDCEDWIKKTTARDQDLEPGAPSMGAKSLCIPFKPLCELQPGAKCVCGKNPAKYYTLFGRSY

[2] = biological target: T1, PfcProRS (Plasmodium falciparum, UniProt Q8I5R7); type: binding; details: for dose-response signal (normalized), SI Fig 8: single replicates
T1 construct: made in house; host or cells: E. coli SoluBL-21
T1 sequence (Q8I5R7 249-746): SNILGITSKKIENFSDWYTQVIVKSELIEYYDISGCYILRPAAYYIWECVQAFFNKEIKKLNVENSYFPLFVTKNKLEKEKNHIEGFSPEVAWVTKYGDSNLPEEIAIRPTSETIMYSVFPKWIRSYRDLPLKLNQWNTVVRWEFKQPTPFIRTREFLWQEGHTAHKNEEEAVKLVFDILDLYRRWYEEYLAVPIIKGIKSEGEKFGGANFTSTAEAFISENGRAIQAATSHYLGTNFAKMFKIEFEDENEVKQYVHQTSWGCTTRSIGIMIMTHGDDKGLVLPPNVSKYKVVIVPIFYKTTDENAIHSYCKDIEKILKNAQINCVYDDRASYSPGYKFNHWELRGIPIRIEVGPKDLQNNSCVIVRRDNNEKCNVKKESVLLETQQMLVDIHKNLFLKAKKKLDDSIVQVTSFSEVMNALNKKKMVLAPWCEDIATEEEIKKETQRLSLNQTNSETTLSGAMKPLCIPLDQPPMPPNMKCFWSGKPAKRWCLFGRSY

[3] = system: P. falciparum Dd2-2D4; test: P. falciparum asexual blood stage (ABS) growth assay, SYBR Green, 72 h, wild-type parasites; type: cell-based, Plasmodium falciparum; details: Log[inhibitor] (M) -7.408

With `O=C(NC1Cc2ccccc2C1)c1nccnc1NC(=O)N1CCNCC1` [compound 14] the IC50 [1] was over 10000 nM, the Kd ([1]; HsProRS - best Kd, SI Fig 16a, values on -log scale) was 347 nM and the “normalized TR-FRET ligand displacement signal, dose-response replicates (SI Fig 6)” value ([1]; Log[inhibitor] (M) -5.000) was 7.56E-01 and 7.38E-01 and 6.65E-01. The “TR-FRET dose-response, normalized signal (SI Fig 11)” value ([1]; Log[inhibitor] (M) -5.000) was 5.37E-01 and 5.66E-01 and 5.12E-01, the “normalized TR-FRET ligand displacement signal, dose-response replicates (SI Fig 6)” value ([1]; Log[inhibitor] (M) -5.301) was 8.27E-01 and 7.77E-01 and 8.29E-01 and the “TR-FRET dose-response, normalized signal (SI Fig 11)” value ([1]; Log[inhibitor] (M) -5.301) was 7.06E-01 and 7.34E-01 and 7.02E-01. For the same molecule, the “normalized TR-FRET ligand displacement signal, dose-response replicates (SI Fig 6)” value ([1]; Log[inhibitor] (M) -5.601) was 9.28E-01 and 8.85E-01 and 8.45E-01, the “TR-FRET dose-response, normalized signal (SI Fig 11)” value ([1]; Log[inhibitor] (M) -5.601) was 8.30E-01 and 8.51E-01 and 8.70E-01 and the “normalized TR-FRET ligand displacement signal, dose-response replicates (SI Fig 6)” value ([1]; Log[inhibitor] (M) -5.904) was 9.66E-01 and 1.02E+00 and 8.66E-01. For the same molecule, the “TR-FRET dose-response, normalized signal (SI Fig 11)” value ([1]; Log[inhibitor] (M) -5.904) was 9.48E-01 and 8.82E-01 and 9.17E-01, the “normalized TR-FRET ligand displacement signal, dose-response replicates (SI Fig 6)” value ([1]; Log[inhibitor] (M) -6.208) was 9.85E-01 and 9.86E-01 and 1.00E+00 and the “TR-FRET dose-response, normalized signal (SI Fig 11)” value ([1]; Log[inhibitor] (M) -6.208) was 9.32E-01 and 8.78E-01 and 9.58E-01. For the same molecule, the “normalized TR-FRET ligand displacement signal, dose-response replicates (SI Fig 6)” value ([1]; Log[inhibitor] (M) -6.509) was 1.15E+00 and 1.03E+00 and 9.65E-01, the “TR-FRET dose-response, normalized signal (SI Fig 11)” value ([1]; Log[inhibitor] (M) -6.509) was 9.64E-01 and 9.63E-01 and 9.66E-01 and the “normalized TR-FRET ligand displacement signal, dose-response replicates (SI Fig 6)” value ([1]; Log[inhibitor] (M) -6.796) was 1.11E+00 and 1.13E+00 and 1.12E+00. For the same molecule, the “TR-FRET dose-response, normalized signal (SI Fig 11)” value ([1]; Log[inhibitor] (M) -6.796) was 1.02E+00 and 9.73E-01 and 9.90E-01, the “normalized TR-FRET ligand displacement signal, dose-response replicates (SI Fig 6)” value ([1]; Log[inhibitor] (M) -7.108) was 1.08E+00 and 1.05E+00 and 9.83E-01 and the “TR-FRET dose-response, normalized signal (SI Fig 11)” value ([1]; Log[inhibitor] (M) -7.108) was 9.95E-01 and 1.03E+00 and 9.34E-01. The “normalized TR-FRET ligand displacement signal, dose-response replicates (SI Fig 6)” value ([1]; Log[inhibitor] (M) -7.409) was 9.81E-01 and 8.66E-01 and 9.44E-01, the “TR-FRET dose-response, normalized signal (SI Fig 11)” value ([1]; Log[inhibitor] (M) -7.409) was 9.68E-01 and 9.66E-01 and 9.87E-01 and the “normalized TR-FRET ligand displacement signal, dose-response replicates (SI Fig 6)” value ([1]; Log[inhibitor] (M) -7.710) was 1.08E+00 and 1.01E+00 (2×). For the same molecule, the “TR-FRET dose-response, normalized signal (SI Fig 11)” value ([1]; Log[inhibitor] (M) -7.710) was 1.03E+00 (2×) and 9.36E-01, the “normalized TR-FRET ligand displacement signal, dose-response replicates (SI Fig 6)” value ([1]; Log[inhibitor] (M) -8.000) was 9.08E-01 and 9.09E-01 and 9.75E-01 and the “TR-FRET dose-response, normalized signal (SI Fig 11)” value ([1]; Log[inhibitor] (M) -8.000) was 1.02E+00 and 1.03E+00 and 9.52E-01. The “normalized TR-FRET ligand displacement signal, dose-response replicates (SI Fig 6)” value ([1]; Log[inhibitor] (M) -8.301) was 9.22E-01 and 9.86E-01 and 9.29E-01, the “TR-FRET dose-response, normalized signal (SI Fig 11)” value ([1]; Log[inhibitor] (M) -8.301) was 1.02E+00 and 9.93E-01 and 9.56E-01 and the “normalized TR-FRET ligand displacement signal, dose-response replicates (SI Fig 6)” value ([1]; Log[inhibitor] (M) -8.602) was 9.82E-01 and 1.05E+00 and 8.99E-01. The “TR-FRET dose-response, normalized signal (SI Fig 11)” value ([1]; Log[inhibitor] (M) -8.602) was 9.98E-01 and 9.57E-01 and 9.65E-01, the “normalized TR-FRET ligand displacement signal, dose-response replicates (SI Fig 6)” value ([1]; Log[inhibitor] (M) -9.000) was 1.07E+00 and 1.04E+00 and 1.00E+00 and the “TR-FRET dose-response, normalized signal (SI Fig 11)” value ([1]; Log[inhibitor] (M) -9.000) was 1.00E+00 and 9.49E-01 and 9.70E-01. The “normalized TR-FRET ligand displacement signal, dose-response replicates (SI Fig 6)” value ([1]; Log[inhibitor] (M) -9.301) was 9.76E-01 and 9.94E-01 and 1.01E+00, the “TR-FRET dose-response, normalized signal (SI Fig 11)” value ([1]; Log[inhibitor] (M) -9.301) was 9.76E-01 and 1.00E+00 and 9.87E-01 and the “HsProRS % signal at 10 μM” value ([1]; no added proline/ATP (-), 10 μM) was 53.8%. The “dose-response signal (normalized), SI Fig 8” value ([2]; Log[inhibitor] (M) -5.000) was 3.52E-01 and 3.02E-01 and 4.80E-01, the “dose-response signal (normalized), SI Fig 8” value ([2]; Log[inhibitor] (M) -5.301) was 6.97E-01 and 5.97E-01 and 7.91E-01 and the “dose-response signal (normalized), SI Fig 8” value ([2]; Log[inhibitor] (M) -5.601) was 7.61E-01 and 7.19E-01 and 8.51E-01. The “dose-response signal (normalized), SI Fig 8” value ([2]; Log[inhibitor] (M) -5.904) was 9.39E-01 and 1.01E+00 and 9.69E-01, the “dose-response signal (normalized), SI Fig 8” value ([2]; Log[inhibitor] (M) -6.208) was 9.51E-01 and 9.80E-01 and 1.13E+00 and the “dose-response signal (normalized), SI Fig 8” value ([2]; Log[inhibitor] (M) -6.509) was 1.06E+00 and 1.12E+00 and 9.92E-01. For the same molecule, the “dose-response signal (normalized), SI Fig 8” value ([2]; Log[inhibitor] (M) -6.796) was 9.94E-01 and 1.03E+00 and 9.99E-01, the “dose-response signal (normalized), SI Fig 8” value ([2]; Log[inhibitor] (M) -7.108) was 1.00E+00 and 1.01E+00 and 1.05E+00 and the “dose-response signal (normalized), SI Fig 8” value ([2]; Log[inhibitor] (M) -7.409) was 1.05E+00 and 9.56E-01 and 1.00E+00. The “dose-response signal (normalized), SI Fig 8” value ([2]; Log[inhibitor] (M) -7.710) was 1.05E+00 and 1.12E+00 and 1.08E+00, the “dose-response signal (normalized), SI Fig 8” value ([2]; Log[inhibitor] (M) -8.000) was 9.77E-01 and 1.04E+00 (2×) and the “dose-response signal (normalized), SI Fig 8” value ([2]; Log[inhibitor] (M) -8.301) was 1.09E+00 and 1.08E+00 and 1.13E+00. For the same molecule, the “dose-response signal (normalized), SI Fig 8” value ([2]; Log[inhibitor] (M) -8.602) was 9.19E-01 and 1.01E+00 and 1.04E+00, the “dose-response signal (normalized), SI Fig 8” value ([2]; Log[inhibitor] (M) -9.000) was 9.80E-01 and 1.02E+00 and 1.08E+00 and the “dose-response signal (normalized), SI Fig 8” value ([2]; Log[inhibitor] (M) -9.301) was 1.02E+00 and 1.01E+00 and 8.73E-01. The “PfcProRS -- best Kd” value ([2]; SI Fig 16a, values on -log scale) was 5.788 and the “dose-response value per replicate (SI Fig 2g)” value [3] was 106.
